Test results: patent US20110124745A1, “Switchable Anionic Surfactants and Methods of Making and Using Same” (priority 2009, published 2011)

Legend:
[1] = Soil washing: amount of oil removed from contaminated sand
Protocol: Oil-contaminated soil was prepared in the following manner. North Sea crude oil (2.4 to 2.6 g) (Chevron, San Ramon, Calif., USA) was poured into a beaker. Tetrahydrofuran (THF) (to dissolution, approximately 50 mL) was added and the beaker and its contents were swirled to dissolve the oil. Ottawa sand (60 g) (EMD Chemicals, Gibbstown N.J., USA) was poured into the beaker and the contents of the beaker was swirled again. The beaker was left uncovered overnight at room temperature to allow the THF to evaporate. Then, the sand was broken up and mixed in the beaker. The beaker was left uncovered for a further time period so that total elapsed time for evaporation was 24 hours. The contaminated sand was then poured into a pre-weighed petrie dish, which was then placed into an oven at 110° C. and heated for 24 hours. After the petrie dish was removed from the oven and had cooled to room temperature, the sample and dish were weighed together. The contaminated sand was then transferred to a 100 mL amber vial for storage. This heat treatment was intended to simulate weathering of the contaminated soil. This procedure provided a sample of soil with 3.0 wt % oil contamination.
A 0.5 wt % surfactant solution was prepared in the following manner: surfactant (0.25 g) was added to a 50 mL volumetric flask. Deionized water at room temperature was added to achieve a total mass of 50 g. Sonication of the solution assisted with dissolving the surfactant.
A 0.5 wt % surfactant solution was prepared in the following manner: Deionized water was heated to 50° C. Surfactant (0.25 g) was added to a 50 mL volumetric flask. The heated water was added to achieve a total mass of 50 g. Swirling and shaking of the flask was sufficient to dissolve the surfactant.
A 0.1 wt % surfactant solution was also prepared using the above-described procedure wherein 0.0583 g of surfactant was used.
The contaminated sand of Example 7A was washed in the following manner. Three 20 mL vials were labelled and their empty masses were, recorded. Contaminated sand (5.1 g) was added to each vial and the vial's new masses were recorded. The surfactant solution was added to each vial using a syringe to achieve 10 g of solution. A stir bar was also added. The vials were capped with TEFLON®-lined lids and shaken manually for 20 seconds. The vials were placed in a beaker, to keep them upright. The beaker was placed on a stir plate and the vials were stirred at 470 rpm for 1 hour. Each vial was then manually shaken for 20 seconds. Then the stirring was continued for a second hour. The liquid portion of the samples was poured into separate 20 mL vials and is referred to below as “first decant solution”. The original vials (and their remaining contents) were each rinsed with 50 mL of deionized water and that rinse water was then added to 50 mL Wheaton jars and is referred to below as “wash solution”.
Sand washing was also carried out at elevated temperature by following the procedure as described in Example 7D with the difference that vials were placed into a 50° C. water bath. The water bath was placed on a stirring hot plate and was maintained 50° C. and the vials were stirred at 470 rpm for 1 hour. Each vial was then manually shaken for 20 seconds. Then the stirring was continued for a second hour. The liquid portion of the samples was poured into separate 20 mL vials and is referred to below as “first decant solution”. The original vials were each rinsed with 50 mL of deionized water and that rinse water was then added to 50 mL Wheaton jars and is referred to below as “wash solution”.
Oil remaining on the soil of Examples 7A-E was quantified in the following manner. An extraction was performed using 10 mL of a 1:1 dichloromethane:hexanes liquid mixture. This mixture was added to vials housing washed sand (the term “washed sand” refers to 5.1 g of contaminated sand from Example 7A that has been washed and rinsed using the procedures of Example 7D or 7E). […]

[2] = Switchability using DMSO-d6 (CO2 bubbling, 1H NMR); assay type: physicochemical; conditions: 0.01 M solution in DMSO-d6, non-aqueous
From the text: (§1) Since n-octyl 4-hydroxy-3-nitrobenzoate (1N) and the […] salt of (1A) are soluble in DMSO and have some characteristic signals in the ^1H NMR spectrum, […] was used as a solvent to monitor the non-aqueous switchability by NMR spectroscopy.

[3] = Solubility observations (aqueous solution, DMSO); assay type: physicochemical; conditions: DMSO
From the text: The following study confirmed that compounds (1A) and (1N) reversibly convert from the neutral form (1N) to the anionic form (1A) and back to the neutral form over and over again with substantially no loss of product. The conversion was verified visually since the neutral form was not soluble in aqueous solution and appeared as a white precipitate in colourless liquid while the anionic form was fully soluble in aqueous solution and appeared as a clear yellow liquid (see FIG. 2). In addition to visual examination, ^1H NMR studies that are described below confirmed the presence of the hydroxyl proton in the spectra of the neutral form.
as §1

[4] = 50° C. Washing, 0.5 wt % surfactant solution
[5] = Room Temperature Washing, 0.5 wt % surfactant solution

Triton X-100
Amount of oil removed from sand [1, 4]: 94%
Amount of oil removed from sand [1, 5]: 68%

potassium 4-hydroxy-3-nitrobenzoate [potassium salt of (1A)]
conversion on CO2 bubbling by 1H NMR [2]: no conversion was apparent
solubility in DMSO [3]: soluble

CCCCCCCCOC(=O)c1ccc(O)c([N+](=O)[O-])c1.[Na] [Sodium octyl 4-hydroxy-3-nitrobenzoate]
Amount of oil removed from sand ([1]; 50° C. Washing, 0.1 wt % surfactant solution): 94%
Amount of oil removed from sand [1, 4]: 94-97%
Amount of oil removed from sand [1, 5]: 82%

CCCCCCCCCCCCOS(=O)(=O)[O-].[Na+] [Sodium Dodecyl Sulfate (SDS), Sodium Dodecyl Sulfate]
Amount of oil removed from sand [1, 4]: 86%
Amount of oil removed from sand ([1]; Room Temperature Washing, 0.5 wt % surfactant solution, Sulfate): 40%
Amount of oil removed from sand ([1]; Room Temperature Washing, 0.5 wt % surfactant solution, listed as sodium dodecyl sulfate (SDS), Sulfate): 40%
